Assay results as given in patent US10906946B2, “Thrombin inhibitors” (priority 2015, dated 2021).
Peptide text beside a SMILES is read from it.

Experiments:
human α-thrombin = molecular target: T1, human α-thrombin (Homo sapiens, UniProt P00734); experiment: Thrombin amidolytic activity assay with chromogenic substrate S2238; format: biochemical
T1 construct: residues in the termini of the light chain; purchased Chemo-Sero-Therapeutic Research Institute (Kaketsuken, Japan), as a gift, not bought
In short: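 Run in 50 mM Tris pH 7.4, 100 mM NaCl, 1 mg/ml BSA; p-nitroaniline release from S2238 monitored at 405 nm for 10 min. IC50 and Hill coefficients from dose-response fits; inhibition constants from varied S2238 concentrations using Morrison tight-binding equation.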

blood = experiment: Anti-coagulation effect of peptides in blood tubes (visual clot formation); parameters: species or system human (healthy volunteers); details: room temperature
Method: Individual peptides are dissolved in phosphate buffered saline to prepare 10× peptide solutions (ie. concentrations of peptides are 10 times higher than the final concentrations at which they are to be tested). 0.3 ml of the 10× peptide solutions are placed in blood tubes without any additives. Blood was drawn from healthy volunteers using syringes and immediately transferred to a 50 ml conical centrifuge tube (Falcon tube) before pipetting 2.7 ml of the blood into blood tubes with peptide solutions. Final concentrations of peptides are as stated in Table 5 and 6.
Blood tubes with various peptides at different concentrations were left standing at room temperature until tested at designated times. At different time points, tubes were inverted several times and visually inspected for insoluble materials as indications of clot formation.

thrombin = molecular target: T2, thrombin (Homo sapiens, UniProt P00734); experiment: Cleavage of peptide by thrombin (RP-HPLC, ESI-MS); format: biochemical
T2 construct: residues in the termini of the light chain; and in the autolysis loop and C-terminus of the heavy chain; purchased Chemo-Sero-Therapeutic Research Institute (Kaketsuken, Japan), as a gift, not bought
Method: A. Evaluation of avathrin cleavage by thrombin by HPLC chromatograms. Avathrin (150 μM) was incubated with thrombin (5 μM) for various times and the reaction mixtures were separated using RP-HPLC; the masses of the cleavage products were analyzed with ESI-MS. At 0 min (upper panel), a single peak corresponding to full length avathrin (mass 3139 Da) was identified. At 120 min (middle panel), two new peaks corresponding to N-terminal cleavage product (^1[…]^10 of SEQ ID NO: 1; mass 982 Da) and C-terminal cleavage product ([…] (SEQ ID NO: 4); mass 2176 Da) were identified in addition to avathrin peak. At 600 min (lower panel), two peaks corresponding to the N- and C-terminal cleaved products were observed while avathrin peak was not observed, indicating complete cleavage. B. Time-dependent cleavage of avathrin by thrombin. Relative percentages of avathrin, its N- and C-terminal cleavage products were quantified by calculating areas under the curve. Each data point is the mean±S.D. of at least three independent experiments. C. Effect of thrombin cleavage on inhibitory properties of avathrin. Avathrin was incubated with thrombin (0.81 nM) for up to 36 h, and assayed at different time points for its ability to inhibit thrombin amidolytic activity on the chromogenic substrate S2238. […]
Thrombin amidolytic activity assays for all peptides were performed in 96-wells microtiter plates in 50 mM Tris buffer (pH 7.4) containing 100 mM NaCl and 1 mg/ml bovine serum albumin. […] The rates of formation of p-nitroaniline were followed by measuring the absorbance at 405 nm for 10 min with a Tecan InfinitePro M200 microplate reader from Tecan (Männedorf, Switzerland). […] To measure the inhibitory constants, different concentrations of S2238 were used and the residual velocities were determined using the Morrison's tight binding equation. Inhibition of thrombin fibrinogenolytic activity of peptides were tested by measuring absorbance at 650 nm using a Sunrise microplate reader from Tecan (Männedorf, Switzerland) as described previously [Koh C Y, et al., J Biol Chem 282: 29101-13 (2007)]. […] Effects of avathrin on the amidolytic activities of these serine proteases were determined using respective chromogenic substrates. […] After different incubation times, reactions were quenched with 1% TFA (pH 1.8) and loaded onto a Jupiter Proteo column (4 μm, 90 Å, 100×1.0 mm) attached to a Dionex nano-HPLC system from Thermo Fisher Scientific (Waltham, Mass., USA) and eluted using an acetonitrile gradient with 0.05% TFA and 99.95% MilliQ water as eluent A and 0.05% TFA, 19.95% MilliQ water and 80% ACN as eluent B. Masses of all peaks were measured to identify cleavage products, which were subsequently quantified by integrating the peaks and calculating the area under the curves. […]

[1] = inhibitory constant Ki for thrombin, thrombin 0.81 nM, various S2238 concentrations
[2] = final concentration 75 micromolar
[3] = final concentration 150 micromolar
[4] = final concentration 300 micromolar

Row | SMILES | fold more potent than variegin (Ki) (human α-thrombin) | fold stronger affinity compared to avathrin and variegin (human α-thrombin) [fold] | times higher affinity for thrombin than Bivalirudin (human α-thrombin) | Ki (human α-thrombin; Affinity (nM), Table 4, Ki values) [nM] | IC50 (human α-thrombin; IC50 (nM), Table 5) [nM] | IC50 (human α-thrombin; IC50 of inhibition of thrombin amidolytic activity, thrombin 0.81 nM, S2238 100 μM, without pre-incubation (0 min) where stated) [nM] | Ki (human α-thrombin; Ki (pM), Table 5) [nM] | Ki (human α-thrombin; [1]) [nM] | Time to observe clot formation (blood; [2]) [h] | Time to observe clot formation (blood; [3]) [h] | Time to observe clot formation (blood; [4]) [h] | time to complete cleavage by thrombin (thrombin; peptide incubated with thrombin (30:1)) [h] | Hill slope of thrombin amidolytic inhibition (human α-thrombin; 0 min pre-incubation where stated) | Hill slope of thrombin amidolytic inhibition, 10 min pre-incubation (human α-thrombin; 10 min pre-incubation) | IC50 (human α-thrombin; IC50(nM), Table 2) [nM] | Hill Slope (human α-thrombin; Table 2) | thrombin amidolytic activity inhibited after prolonged incubation (human α-thrombin; at 24 h, same avathrin:thrombin ratio as cleavage experiments) [%] | inhibition at 0.01 µM (human α-thrombin; read-out: inhibition of thrombin activity) [%] | inhibition at 0.001 µM (human α-thrombin; read-out: inhibition of thrombin amidolytic activity at equimolar concentrations) [%] | time at which complete cleavage by thrombin was observed (thrombin; avathrin 150 μM, thrombin 5 μM) [min]
1 | CC[C@H](C)[C@H](NC(=O)[C@H](C)NC(=O)[C@H](CC(=O)O)NC(=O)[C@H](CC(=O)O)NC(=O)[C@@H]1CCCN1C(=O)[C@@H](NC(=O)[C@H](CCC(=O)O)NC(=O)[C@H](CCC(=O)O)NC(=O)[C@H](Cc1ccccc1)NC(=O)[C@H](CC(=O)O)NC(=O)CNC(=O)[C@@H]1CCCN1C(=O)[C@@H]1CCCN1C(=O)[C@H](C)NC(=O)[C@@H](NC(=O)[C@H](CO)NC(=O)[C@H](Cc1ccc(O)cc1)NC(=O)[C@H](CCSC)NC(=O)[C@H](CCCCN)NC(=O)[C@@H]1CCCN1C(=O)[C@@H](NC(=O)[C@H](C)NC(=O)[C@H](CCCNC(=N)N)NC(=O)[C@@H](NC(=O)[C@H](C)NC(=O)[C@H](CCC(=O)O)NC(=O)[C@H](CC(=O)O)NC(=O)[C@@H](N)CO)C(C)C)[C@@H](C)CC)[C@@H](C)O)[C@@H](C)CC)C(=O)N[C@@H](CCC(=O)O)C(=O)N[C@@H](CCC(=O)O)C(=O)O [Ultravariegin] (H-SDEAVRAIPKMYSTAPPGDFEEIPDDAIEE-OH; N-terminus and C-terminus assumed) | more than 70 fold | > 200 | ~650 times | 0.001 | 0.4 ± 0.09 | 0.26 ± 0.008 | 0.0044 ± 0.00035 | 0.0015 | 91 to 101 | 101 to 139 | 101 to 139 | 18 |  |  |  |  |  |  |  | 
2 | CC[C@H](C)[C@H](NC(=O)[C@H](CCCCN)NC(=O)[C@@H]1CCCN1C(=O)[C@@H](NC(=O)[C@H](C)NC(=O)[C@@H](NC(=O)[C@H](CCC(N)=O)NC(=O)[C@H](Cc1c[nH]cn1)NC(=O)CNC(=O)CNC(=O)[C@@H](N)CO)[C@@H](C)O)C(C)C)C(=O)N[C@@H](CO)C(=O)N[C@@H](CCCCN)C(=O)N[C@@H](CCC(N)=O)C(=O)NCC(=O)N[C@@H](CC(C)C)C(=O)NCC(=O)NCC(=O)N[C@@H](CC(=O)O)C(=O)N[C@@H](Cc1ccccc1)C(=O)N[C@@H](CCC(=O)O)C(=O)N[C@@H](CCC(=O)O)C(=O)N[C@H](C(=O)N1CCC[C@H]1C(=O)N[C@@H](CO)C(=O)N[C@@H](CC(=O)O)C(=O)N[C@@H](CCC(=O)O)C(=O)N[C@H](C(=O)N[C@H](C(=O)N[C@@H](CCC(=O)O)C(=O)O)[C@@H](C)CC)[C@@H](C)CC)[C@@H](C)CC [Avathrin] (H-SGGHQTAVPKISKQGLGGDFEEIPSDEIIE-OH; N-terminus and C-terminus assumed) |  |  | approximately 5 times |  |  |  |  | 0.5453 ± 0.0031 | 42 to 52 | 52 to 66 | 52 to 66 |  | 0.92±0.01 | 0.94±0.02 | 6.95 ± 0.42 | 0.92 ± 0.02 | > 45 | 65 | 14.3 ± 1.39 | 600
